The target in assay [1] is factor Xa (Homo sapiens, UniProt P00742). The assay is described as follows: factor Xa amidolytic assay (XA). Type of assay: biochemical. The conditions noted are these: substrate S-2765, 5 min preincubation, room temperature, pH 7.5. Here is the method:
The compounds of the present invention are dissolved in buffer to give solutions containing concentrations such that assay concentrations range from 0 to 100 μM. In the assays for thrombin, prothrombinase and factor Xa, a synthetic chromogenic substrate is added to a solution containing test compound and the enzyme of interest and the residual catalytic activity of that enzyme is detennined spectrophotometrically. The IC50 of a compound is determined from the substrate turnover. The IC50 is the concentration of test compound giving 50% inhibition of the substrate turnover.
(§1) The factor Xa and thrombin assays were performed at room temperature, in 0.02 M TrisHCl buffer, pH 7.5, containing 0.15 M NaCl. The rates of hydrolysis of the para-nitroanilide substrate S-2765 (Chromogenix) for factor Xa, and the substrate Chromozym TH (Boehringer Mannheim) for thrombin following preincubation of the enzyme with inhibitor for 5 minutes at room temperature, and were determined using the Softmax 96-well plate reader (Molecular Devices), monitored at 405 nm to measure the time dependent appearance of p-nitroaniline.

The target in assay [2] is T1, thrombin (Homo sapiens, UniProt P00734).
T1 construct: proteolytic cleavage of its precursor prothrombin at the Arg-Thr linkage at positions 271-272 and the Arg-Ile linkage at positions 320-321
Description: thrombin amidolytic assay (IIA). Type of assay: biochemical. The following applies: substrate Chromozym TH, 5 min preincubation, room temperature, pH 7.5. As for the experimental part:
[…] In the assays for thrombin, prothrombinase and factor Xa, a synthetic chromogenic substrate is added to a solution containing test compound and the enzyme of interest and the residual catalytic activity of that enzyme is detennined spectrophotometrically. The IC50 of a compound is determined from the substrate turnover. The IC50 is the concentration of test compound giving 50% inhibition of the substrate turnover.
as §1

As a reminder, the IC50 is the concentration at which inhibition is half-maximal. A low value points to greater potency.

Structures are written as SMILES.

Sequence of factor Xa (P00742 235-488 limits assumed): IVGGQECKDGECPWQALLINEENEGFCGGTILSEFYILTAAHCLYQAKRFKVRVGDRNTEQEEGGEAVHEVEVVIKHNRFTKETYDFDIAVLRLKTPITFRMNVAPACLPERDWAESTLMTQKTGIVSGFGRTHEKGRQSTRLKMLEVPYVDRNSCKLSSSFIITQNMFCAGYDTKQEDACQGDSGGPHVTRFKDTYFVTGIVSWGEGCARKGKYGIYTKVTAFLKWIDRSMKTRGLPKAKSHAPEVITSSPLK
Sequence of factor Xa (P00742 41-179 partner limits assumed): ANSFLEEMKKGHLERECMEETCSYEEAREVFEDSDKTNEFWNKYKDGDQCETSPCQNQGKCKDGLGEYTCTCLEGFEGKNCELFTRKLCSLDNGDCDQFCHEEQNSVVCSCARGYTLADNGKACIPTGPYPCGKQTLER

For the compound `CC(=N)N1CCC(Oc2ccc3c(c2)CCN(C(Cc2cccc(C(=N)N)c2)C(=O)NC(C)(C)C)C3=O)CC1` (centres unmarked) [Example 13], the IC50 in assay [1] came out at 993 nM; in assay [2] it was 35.9 µM.

Turning to `CC(=N)N1CCC(Oc2ccc3c(c2)CCN(C(Cc2cccc(C(=N)N)c2)C(=O)O)C3=O)CC1` (centres unmarked) [Example 14], the IC50 in assay [1] came out at 810 nM.

In assay [1], `N=C(N)c1cccc(CC(C(=O)O)N2CCc3cc(OC4CCN(C(=N)N)CC4)ccc3C2=O)c1` (centres unmarked) [Example 15] yielded an IC50 of 794 nM. For `COC(=O)C(Cc1ccc2ccc(C(=N)N)cc2c1)N1CCc2cc(OC3CCN(C(=N)N)CC3)ccc2C1=O` (centres unmarked) [Example 16], the IC50 in assay [1] was 693 nM; in assay [2] it was 228 µM. In turn, `CC(=N)N1CCC(Oc2ccc3c(c2)CCN(C(Cc2ccc4ccc(C(=N)N)cc4c2)C(=O)O)C3=O)CC1` (centres unmarked) [Example 17] displayed an IC50 in assay [1] of 348 nM. With `N=C(N)c1ccc2ccc(CC(C(=O)O)N3CCc4cc(OC5CCN(C(=N)N)CC5)ccc4C3=O)cc2c1` (centres unmarked) [Example 18], the IC50 in assay [1] worked out at 282 nM. `CC(=N)N1CCC(Oc2ccc3c(c2)CCN(C(Cc2ccc4ccc(C(=N)N)cc4c2)C(=O)OC(C)(C)C)C3=O)CC1` (centres unmarked) [Example 19]: the figures for the IC50 in assay [1] and in assay [2] were 258 nM and 119 µM, respectively.

Regarding `CC(C)(C)OC(=O)C(Cc1ccc2ccc(C(=N)N)cc2c1)N1CCc2cc(OC3CCN(C(=N)N)CC3)ccc2C1=O` (centres unmarked) [Example 20], the IC50 came out at 168 nM in assay [1] and 101 µM in assay [2]. Regarding `COC(=O)C(Cc1cccc(C(=N)N)c1)N1CCc2cc(OC3CCN(C(=N)N)CC3)ccc2C1=O` (centres unmarked) [Example 21], the results for the half-maximal inhibitory concentration (IC50) in assay [1] and in assay [2] were 152 nM and 402 µM, respectively. For `COC(=O)C(Cc1cccc(C(=N)N)c1)N1CCc2cc(OC3CCN(C(C)=N)CC3)ccc2C1=O` (centres unmarked) [Example 22], the IC50 in assay [1] came to 129 nM; in assay [2], 393 µM.

In the case of `CC(C)(C)OC(=O)C(Cc1cccc(C(=N)N)c1)N1CCc2cc(OC3CCN(C(=N)N)CC3)ccc2C1=O` (centres unmarked) [Example 23], the half-maximal inhibitory concentration (IC50) was determined as 47.5 nM in assay [1] and 233 µM in assay [2]. Turning to `CC(=N)N1CCC(Oc2ccc3c(c2)CCN(C(Cc2cccc(C(=N)N)c2)C(=O)OC(C)(C)C)C3=O)CC1` (centres unmarked) [Example 24], the values for the IC50 in assay [1] and in assay [2] were 22.1 nM and 150 µM, respectively.

Source of the values: US6469026B2, “Isoquinolone inhibitors of factor Xa” (Millennium Pharmaceuticals, Inc., priority 2000, dated 2002).
